The text below walks through data of paper PMC5537346, “Characterisation and pharmacological analysis of a crustacean G protein-coupled receptor: the red pigment-concentrating hormone receptor of Daphnia pulex” (Scientific Reports, 2017).

Where two headings read alike, the source gives them in different places. Where a SMILES comes first, the peptide text is derived from it. [ ]: non-standard residue; d: D form. pGlu = O=C1CC[C@@H](C(=O)O)N1

The assay addresses T1, Dappu-RPCHR (Daphnia pulex RPCH receptor) (Daphnia pulex, UniProt A0A240FBD5).
T1 sequence (A0A240FBD5 1-451): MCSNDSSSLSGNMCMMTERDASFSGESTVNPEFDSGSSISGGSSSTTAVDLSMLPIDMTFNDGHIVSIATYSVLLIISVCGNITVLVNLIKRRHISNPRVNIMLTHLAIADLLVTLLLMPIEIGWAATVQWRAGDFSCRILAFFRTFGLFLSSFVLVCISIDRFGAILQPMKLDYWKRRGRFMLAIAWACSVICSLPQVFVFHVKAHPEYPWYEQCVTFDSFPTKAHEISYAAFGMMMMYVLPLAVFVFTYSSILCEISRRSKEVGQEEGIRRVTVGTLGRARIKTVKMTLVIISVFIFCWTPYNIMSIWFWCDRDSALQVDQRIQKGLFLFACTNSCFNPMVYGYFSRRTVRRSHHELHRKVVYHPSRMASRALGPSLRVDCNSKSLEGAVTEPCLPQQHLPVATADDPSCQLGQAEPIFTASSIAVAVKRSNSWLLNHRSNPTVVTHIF
The experiment in a line: in vitro cell-based bioluminescence (aequorin Ca2+) assay on Dappu-RPCHR expressing CHO-WTA11 cells. To be noted: for fold lower affinity / potency relative to Dappu-RPCH: from EC50 values. As for the experimental part:
Pharmacological analyses were performed in Chinese hamster ovary (CHO) WTA11 cells stably co-expressing the bioluminescent protein apoaequorin and the promiscuous Gα16 subunit, which couples most agonist-induced GPCRs to the phospholipase C and Ca^2+ pathway, irrespective of their natural signalling cascade.
CHO-WTA11 cells were cultured in monolayers in Dulbecco’s Modified Eagles Medium nutrient mixture F12-Ham (DMEM/F12) with L-glutamine, 15 mM HEPES, sodium bicarbonate and phenol red (Sigma-Aldrich) supplemented with 100 IU/ml penicillin and 100 µg/ml streptomycin (Gibco), 10% heat-inactivated fetal bovine serum (Gibco) and […] zeocin (Gibco). All cells were maintained in an incubator at 37 °C with a constant supply of 5% CO2.
Transfections with pcDNA3.1-Dappu-RPCHR or empty pcDNA3.1 vector were carried out in T75 flasks at 60–80% confluency. Transfection medium was prepared using the Lipofectamine LTX Kit (Invitrogen) with 2.5 ml Opti-MEM® (Gibco), 12.5 µl PlusTM Reagent and 5 µg vector construct in 5 ml polystyrene round-bottom tubes. After a 5 min incubation period at room temperature, 30 µl LTX was added to the medium. After a further incubation period of 30 min at room temperature, the medium was removed and DNA/LTX mix was added dropwise to the cells followed by 3 ml of fresh complete medium.
Following transfection, cells were incubated overnight (37 °C, 5% CO2), then 10 ml of cell medium was added followed by a second overnight incubation (37 °C, 5% CO2). Ligand-induced changes in intracellular Ca^2+ were then monitored in the cells as described below.
CHO-WTA11 cells transfected with receptor construct (or empty vector) plasmid were detached with PBS, complemented with 0.2% EDTA (pH 8.0), and rinsed off the flask with DMEM/F12 with L-glutamine and 15 mM HEPES (Sigma-Aldrich). The number of viable and nonviable cells was determined using a TC20 automated Cell Counter (BIO-RAD). The cells were pelleted for 5 minutes at 800 rpm and resuspended to a density of 5.10^6 cells/ml in sterile filtered bovine serum albumin (BSA) medium (DMEM/F12 with L-glutamine and 15 mM Hepes, supplemented with 0.1% BSA) and loaded with 5 µM Coelenterazine_h (Invitrogen) for 4 h in the dark, at room temperature, while gently shaking to reconstitute the holo-enzyme aequorin. After a 10-fold dilution, cell solution (50 µl) was delivered to each well in a 96-well plate (~25000 cells/well) and cells were exposed to potential ligands reconstituted in BSA medium and distributed across the plate. In every row, BSA medium alone was placed in one well to serve as the negative control (blank). The Ca^2+ response was recorded for 30 s on a Mithras LB 940 (Berthold Technologies). After 30 s, 0.1% Triton X-100, a non-ionic surfactant, was added to the same well to measure the total cellular Ca^2+ response. The total response (ligand + Triton X-100), which is directly related to the number of cells present in the well, was used to normalise the response. The response of each negative control was subtracted from the luminescence obtained for wells within the same row. Calculations were made using the output file from the Microwin software (Berthold Technologies) in Excel (Microsoft). Further analysis was done in GraphPad Prism 5.

The mark [1] stands for this setting: Table 2, analogues of Dappu-RPCH.
Setting [2] is: Table 1, AKH/RPCH and related peptides, calculated from dose-response curves.

In turn, `CC(C)[C@H](NC(=O)[C@@H]1CCC(=O)N1)C(=O)N[C@@H](CC(N)=O)C(=O)N[C@@H](Cc1ccccc1)C(=O)N[C@@H](CO)C(=O)N[C@H](C(=O)N[C@@H](CO)C(=O)N[C@@H](C)C(N)=O)[C@@H](C)O` [[Ala^8]Dappu-RPCH, pQVNFSTSAamide] ([pGlu]VNFSTSA-NH2) yielded an EC50 under setting [1] of 131 nM.
As for `CC(C)[C@H](NC(=O)[C@@H]1CCC(=O)N1)C(=O)N[C@@H](CC(N)=O)C(=O)N[C@@H](Cc1ccccc1)C(=O)N[C@@H](CO)C(=O)N1CCC[C@H]1C(=O)N[C@@H](CO)C(=O)N[C@@H](Cc1c[nH]c2ccccc12)C(N)=O` [Anaim-AKH, pQVNFSPSWamide] ([pGlu]VNFSPSW-NH2), the EC50 under setting [2] was 0.224 nM.
`CC(C)[C@H](NC(=O)[C@@H]1CCC(=O)N1)C(=O)N[C@@H](C)C(=O)N[C@@H](Cc1ccccc1)C(=O)N[C@@H](CO)C(=O)N[C@H](C(=O)N[C@@H](CO)C(=O)N[C@@H](Cc1c[nH]c2ccccc12)C(N)=O)[C@@H](C)O` [[Ala^3]Dappu-RPCH, pQVAFSTSWamide] ([pGlu]VAFSTSW-NH2) yielded an EC50 under setting [1] of 156 nM.
For `CC(C)[C@H](NC(=O)[C@@H]1CCC(=O)N1)C(=O)N[C@@H](CC(N)=O)C(=O)N[C@@H](Cc1ccccc1)C(=O)N[C@@H](CO)C(=O)N[C@H](C(=O)N[C@@H](CO)C(=O)N[C@@H](Cc1c[nH]c2ccccc12)C(=O)O)[C@@H](C)O` [[Trp-OH]Dappu-RPCH, pQVNFSTSW-OH] ([pGlu]VNFSTSW-OH), the “fold lower affinity / potency relative to Dappu-RPCH” value amounted to 270 fold. The compound further returned an EC50 under setting [1] of 17.4 nM.
Regarding `CC(C)C[C@H](NC(=O)[C@@H]1CCC(=O)N1)C(=O)N[C@@H](CC(N)=O)C(=O)N[C@@H](Cc1ccccc1)C(=O)N[C@@H](CO)C(=O)N[C@H](C(=O)NCC(=O)N[C@@H](Cc1c[nH]c2ccccc12)C(N)=O)[C@@H](C)O` [Schgr-AKH-II, pQLNFSTGWamide] ([pGlu]LNFSTGW-NH2), the “fold lower affinity / potency relative to Dappu-RPCH” value is recorded as “about 4 fold”. Under setting [2], the EC50 was 0.237 nM.
On to `CC(C)[C@H](NC(=O)[C@@H]1CCC(=O)N1)C(=O)N[C@@H](CC(N)=O)C(=O)N[C@@H](Cc1ccccc1)C(=O)N[C@@H](CO)C(=O)N[C@H](C(=O)NCC(=O)N[C@@H](Cc1c[nH]c2ccccc12)C(N)=O)[C@@H](C)O` [Grybi-AKH, pQVNFSTGWamide] ([pGlu]VNFSTGW-NH2), for which the EC50 stood at 0.067 nM. For the same compound, under setting [2], the EC50 is 0.0667 nM.
As to `CC(C)[C@H](NC(=O)[C@@H]1CCC(=O)N1)C(=O)N[C@@H](CC(N)=O)C(=O)N[C@@H](Cc1ccccc1)C(=O)N[C@@H](CO)C(=O)N1CCC[C@H]1C(=O)N[C@@H](CC(N)=O)C(=O)N[C@@H](Cc1c[nH]c2ccccc12)C(N)=O` [Peram-CAH-I, pQVNFSPNWamide] ([pGlu]VNFSPNW-NH2), the “EC50 values (in words)” value is on record as “more or less the same as for Anaim-AKH”. Besides, under setting [2], the 50% effective concentration (EC50) is 0.393 nM.
Compound `CC(C)[C@H](NC(=O)[C@@H]1CCC(=O)N1)C(=O)N[C@@H](CC(N)=O)C(=O)N[C@@H](Cc1ccccc1)C(=O)N[C@@H](C)C(=O)N[C@H](C(=O)N[C@@H](CO)C(=O)N[C@@H](Cc1c[nH]c2ccccc12)C(N)=O)[C@@H](C)O` [[Ala^5]Dappu-RPCH, pQVNFATSWamide] ([pGlu]VNFATSW-NH2) returned an EC50 under setting [1] of 3.61 nM.
With `CC(C)[C@H](NC(=O)[C@@H]1CCC(=O)N1)C(=O)N[C@@H](CC(N)=O)C(=O)N[C@@H](Cc1ccccc1)C(=O)N[C@@H](CO)C(=O)N1CCC[C@H]1C(=O)N[C@@H](CO)C(=O)N[C@@H](Cc1c[nH]c2ccccc12)C(=O)NCC(=O)N[C@@H](CC(N)=O)C(N)=O` [Placa-HrTH, pQVNFSPSWGNamide] ([pGlu]VNFSPSWGN-NH2), the EC50 was 0.66 nM and the “fold lower affinity / potency relative to Dappu-RPCH” value was “ca. 10 fold”. In addition, under setting [2], the EC50 was 0.664 nM.
On to `CC(=O)N[C@@H](C)C(=O)N[C@H](C(=O)N[C@@H](CC(N)=O)C(=O)N[C@@H](Cc1ccccc1)C(=O)N[C@@H](CO)C(=O)N[C@H](C(=O)N[C@@H](CO)C(=O)N[C@@H](Cc1c[nH]c2ccccc12)C(N)=O)[C@@H](C)O)C(C)C` [[N-Ac-Ala^1]Dappu-RPCH, [NAc-Ala]-VNFSTSWamide] (Ac-AVNFSTSW-NH2), for which the “fold lower affinity / potency relative to Dappu-RPCH” value worked out at 750 fold. This compound also displayed an EC50 under setting [1] of 48.7 nM.
